The kinase profiling compilation of Christmann-Franck et al. (2016)

Key:
Assay in all cases: radiometric filter-binding kinase assay
RPS6KA5 KD1 KD2 (human) = RPS6KA5 KD1 KD2 (human) (UniProt O75582)
PRKACA (human) = PRKACA (human) (UniProt P17612)
MAPK3 (human) = MAPK3 (human) (UniProt P27361)
PAK7 (human) = PAK7 (human) (UniProt Q9P286)
[1] = tested on: RPS6KB1 (human), P23443 [T412E]
INSRR (human) = INSRR (human) (UniProt P14616)
MAP2K1 (human) = MAP2K1 (human) (UniProt Q02750)
MAPK1 (human) = MAPK1 (human) (UniProt P28482)
FLT1 (human) = FLT1 (human) (UniProt P17948)
TTK (human) = TTK (human) (UniProt P33981)
EPHA4 (human) = EPHA4 (human) (UniProt P54764)
MAPK15 (human) = MAPK15 (human) (UniProt Q8TD08)
MKNK2 (human) = MKNK2 (human) (UniProt Q9HBH9)
NEK2 (human) = NEK2 (human) (UniProt P51955)
EPHB4 (human) = EPHB4 (human) (UniProt P54760)
SRC (human) = SRC (human) (UniProt P12931)
NEK6 (human) = NEK6 (human) (UniProt Q9HC98)
MAPK14 (human) = MAPK14 (human) (UniProt Q16539)
PLK1 (human) = PLK1 (human) (UniProt P53350)
RPS6KA3 KD1 KD2 (human) = RPS6KA3 KD1 KD2 (human) (UniProt P51812)
CDK2 CCNA2 (human) = CDK2 CCNA2 (human) (UniProt P20248+P24941)
BTK (human) = BTK (human) (UniProt Q06187)
CSNK1D (human) = CSNK1D (human) (UniProt P48730)
SYK (human) = SYK (human) (UniProt P43405)
IKBKE (human) = IKBKE (human) (UniProt Q14164)
RPS6KA1 KD1 KD2 (human) = RPS6KA1 KD1 KD2 (human) (UniProt Q15418)
IKBKB (human) = IKBKB (human) (UniProt O14920)
[2] = tested on: AKT2 (human), P31751 [S474D]
RIPK2 (human) = RIPK2 (human) (UniProt O43353)
EPHB1 (human) = EPHB1 (human) (UniProt P54762)
MAPKAPK3 (human) = MAPKAPK3 (human) (UniProt Q16644)
PIM2 (human) = PIM2 (human) (UniProt Q9P1W9)
PRKAA1 or PRKAA2 (rat) = details: accession and sequence are those of the human protein
CHEK2 (human) = CHEK2 (human) (UniProt O96017)
CSK (human) = CSK (human) (UniProt P41240)
CSK (human), sequence (P41240 whole entry, looked up): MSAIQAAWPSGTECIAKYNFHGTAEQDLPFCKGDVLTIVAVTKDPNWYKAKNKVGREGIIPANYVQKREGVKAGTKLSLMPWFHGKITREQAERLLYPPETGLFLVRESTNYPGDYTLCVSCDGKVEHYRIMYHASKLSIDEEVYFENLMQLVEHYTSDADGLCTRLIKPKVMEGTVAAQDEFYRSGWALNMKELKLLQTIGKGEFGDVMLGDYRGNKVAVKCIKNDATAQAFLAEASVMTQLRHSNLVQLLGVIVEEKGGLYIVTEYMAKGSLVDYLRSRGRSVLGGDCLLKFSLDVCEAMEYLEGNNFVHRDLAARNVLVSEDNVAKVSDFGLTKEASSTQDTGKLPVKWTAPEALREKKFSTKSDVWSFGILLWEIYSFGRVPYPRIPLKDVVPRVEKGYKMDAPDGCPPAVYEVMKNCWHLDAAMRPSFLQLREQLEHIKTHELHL

RIPK2 (human), sequence (O43353 whole entry, looked up): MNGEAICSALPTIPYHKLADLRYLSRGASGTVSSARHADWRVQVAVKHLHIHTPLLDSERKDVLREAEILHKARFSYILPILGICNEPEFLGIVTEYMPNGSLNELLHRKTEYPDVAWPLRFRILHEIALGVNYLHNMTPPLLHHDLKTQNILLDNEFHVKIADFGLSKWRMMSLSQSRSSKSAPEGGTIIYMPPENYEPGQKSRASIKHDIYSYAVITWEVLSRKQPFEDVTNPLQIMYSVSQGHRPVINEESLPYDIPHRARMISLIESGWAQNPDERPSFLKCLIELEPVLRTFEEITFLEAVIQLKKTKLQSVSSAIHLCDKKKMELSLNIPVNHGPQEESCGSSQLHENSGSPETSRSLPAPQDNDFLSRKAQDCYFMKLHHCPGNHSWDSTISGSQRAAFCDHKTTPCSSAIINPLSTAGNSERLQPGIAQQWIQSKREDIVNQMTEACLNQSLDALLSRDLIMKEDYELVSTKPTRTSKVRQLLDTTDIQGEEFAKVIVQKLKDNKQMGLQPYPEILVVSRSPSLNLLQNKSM
AKT2 (human), P31751 [S474D], sequence (P31751 whole entry S474D, looked up): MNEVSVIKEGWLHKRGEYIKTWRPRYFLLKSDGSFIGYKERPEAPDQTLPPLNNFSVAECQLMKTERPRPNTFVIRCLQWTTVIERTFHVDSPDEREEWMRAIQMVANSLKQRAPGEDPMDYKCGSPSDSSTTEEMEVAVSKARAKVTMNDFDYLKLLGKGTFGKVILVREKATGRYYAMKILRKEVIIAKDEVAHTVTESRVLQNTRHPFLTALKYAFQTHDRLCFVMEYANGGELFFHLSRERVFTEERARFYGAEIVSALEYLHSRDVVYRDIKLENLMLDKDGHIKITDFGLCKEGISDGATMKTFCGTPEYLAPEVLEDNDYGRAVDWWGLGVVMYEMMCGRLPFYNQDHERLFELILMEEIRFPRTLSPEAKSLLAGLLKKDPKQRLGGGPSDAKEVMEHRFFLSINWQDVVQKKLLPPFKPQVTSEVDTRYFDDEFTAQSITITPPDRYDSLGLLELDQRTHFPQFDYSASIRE
RPS6KA1 KD1 KD2 (human), sequence (Q15418 whole entry, looked up): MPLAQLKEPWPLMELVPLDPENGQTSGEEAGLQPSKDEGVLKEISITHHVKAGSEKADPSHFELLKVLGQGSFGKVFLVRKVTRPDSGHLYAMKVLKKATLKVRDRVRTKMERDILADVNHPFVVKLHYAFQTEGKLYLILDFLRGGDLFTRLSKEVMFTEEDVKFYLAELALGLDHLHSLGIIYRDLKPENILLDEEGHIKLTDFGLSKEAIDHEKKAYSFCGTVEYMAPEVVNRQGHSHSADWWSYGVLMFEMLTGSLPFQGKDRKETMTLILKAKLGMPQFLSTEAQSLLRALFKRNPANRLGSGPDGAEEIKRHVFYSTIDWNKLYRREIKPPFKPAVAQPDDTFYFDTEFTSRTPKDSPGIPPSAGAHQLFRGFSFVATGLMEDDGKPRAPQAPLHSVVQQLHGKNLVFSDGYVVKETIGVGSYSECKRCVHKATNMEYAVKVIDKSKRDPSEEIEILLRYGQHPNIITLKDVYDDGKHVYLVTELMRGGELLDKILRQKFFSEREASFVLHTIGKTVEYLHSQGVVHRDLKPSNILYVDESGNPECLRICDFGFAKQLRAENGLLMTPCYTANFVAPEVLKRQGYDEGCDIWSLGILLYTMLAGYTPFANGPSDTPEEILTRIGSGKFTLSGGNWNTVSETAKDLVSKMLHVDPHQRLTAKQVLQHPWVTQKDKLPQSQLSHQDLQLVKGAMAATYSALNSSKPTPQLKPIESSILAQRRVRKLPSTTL
RPS6KB1 (human), P23443 [T412E], sequence (P23443 whole entry T412E, looked up): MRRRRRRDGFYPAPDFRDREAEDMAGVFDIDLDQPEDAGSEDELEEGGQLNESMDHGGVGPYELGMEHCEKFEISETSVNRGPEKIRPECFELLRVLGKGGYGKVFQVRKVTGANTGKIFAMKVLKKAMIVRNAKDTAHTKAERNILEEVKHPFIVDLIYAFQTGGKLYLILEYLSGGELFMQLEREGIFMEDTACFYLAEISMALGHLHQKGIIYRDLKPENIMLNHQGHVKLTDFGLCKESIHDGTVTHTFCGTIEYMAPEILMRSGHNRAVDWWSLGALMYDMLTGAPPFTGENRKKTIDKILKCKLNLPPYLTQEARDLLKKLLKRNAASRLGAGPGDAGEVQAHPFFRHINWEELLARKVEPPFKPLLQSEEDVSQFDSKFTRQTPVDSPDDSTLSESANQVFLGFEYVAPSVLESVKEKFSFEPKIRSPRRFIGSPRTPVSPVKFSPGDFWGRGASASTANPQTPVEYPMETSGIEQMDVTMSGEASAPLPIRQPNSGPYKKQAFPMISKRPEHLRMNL
INSRR (human), sequence (P14616 whole entry, looked up): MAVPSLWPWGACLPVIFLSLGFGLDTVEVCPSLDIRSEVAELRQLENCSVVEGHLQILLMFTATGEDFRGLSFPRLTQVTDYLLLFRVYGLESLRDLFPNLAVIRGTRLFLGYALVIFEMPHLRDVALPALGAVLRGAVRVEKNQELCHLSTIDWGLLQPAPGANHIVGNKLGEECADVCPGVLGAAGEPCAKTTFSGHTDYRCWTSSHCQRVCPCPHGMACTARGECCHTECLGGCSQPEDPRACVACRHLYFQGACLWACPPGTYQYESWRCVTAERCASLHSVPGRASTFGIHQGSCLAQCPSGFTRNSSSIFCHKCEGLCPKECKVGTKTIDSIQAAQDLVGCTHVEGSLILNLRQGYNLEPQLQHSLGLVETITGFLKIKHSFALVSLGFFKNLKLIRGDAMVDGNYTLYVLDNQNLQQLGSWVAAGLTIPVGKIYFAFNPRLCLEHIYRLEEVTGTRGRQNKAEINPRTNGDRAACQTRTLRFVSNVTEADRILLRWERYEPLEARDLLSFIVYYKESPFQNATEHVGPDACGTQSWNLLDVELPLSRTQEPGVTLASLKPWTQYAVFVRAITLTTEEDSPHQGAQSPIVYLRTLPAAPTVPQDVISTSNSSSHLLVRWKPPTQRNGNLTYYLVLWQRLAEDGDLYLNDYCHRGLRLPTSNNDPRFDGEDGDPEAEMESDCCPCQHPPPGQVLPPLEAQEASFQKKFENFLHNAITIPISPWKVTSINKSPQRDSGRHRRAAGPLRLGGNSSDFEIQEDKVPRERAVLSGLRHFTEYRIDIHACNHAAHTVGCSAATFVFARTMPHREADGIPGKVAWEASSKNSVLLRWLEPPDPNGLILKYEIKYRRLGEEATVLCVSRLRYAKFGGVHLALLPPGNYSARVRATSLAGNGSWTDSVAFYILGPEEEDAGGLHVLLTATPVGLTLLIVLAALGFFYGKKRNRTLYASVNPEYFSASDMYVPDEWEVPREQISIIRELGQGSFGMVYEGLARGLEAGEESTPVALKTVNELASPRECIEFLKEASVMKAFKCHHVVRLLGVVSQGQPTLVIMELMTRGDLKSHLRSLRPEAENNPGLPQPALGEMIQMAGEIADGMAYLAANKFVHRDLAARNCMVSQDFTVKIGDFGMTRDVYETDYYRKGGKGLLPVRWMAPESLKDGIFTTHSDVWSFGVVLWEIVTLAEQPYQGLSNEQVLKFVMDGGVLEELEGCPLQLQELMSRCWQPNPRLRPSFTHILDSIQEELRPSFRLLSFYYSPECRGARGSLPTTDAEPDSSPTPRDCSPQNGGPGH
MAPK15 (human), sequence (Q8TD08 whole entry, looked up): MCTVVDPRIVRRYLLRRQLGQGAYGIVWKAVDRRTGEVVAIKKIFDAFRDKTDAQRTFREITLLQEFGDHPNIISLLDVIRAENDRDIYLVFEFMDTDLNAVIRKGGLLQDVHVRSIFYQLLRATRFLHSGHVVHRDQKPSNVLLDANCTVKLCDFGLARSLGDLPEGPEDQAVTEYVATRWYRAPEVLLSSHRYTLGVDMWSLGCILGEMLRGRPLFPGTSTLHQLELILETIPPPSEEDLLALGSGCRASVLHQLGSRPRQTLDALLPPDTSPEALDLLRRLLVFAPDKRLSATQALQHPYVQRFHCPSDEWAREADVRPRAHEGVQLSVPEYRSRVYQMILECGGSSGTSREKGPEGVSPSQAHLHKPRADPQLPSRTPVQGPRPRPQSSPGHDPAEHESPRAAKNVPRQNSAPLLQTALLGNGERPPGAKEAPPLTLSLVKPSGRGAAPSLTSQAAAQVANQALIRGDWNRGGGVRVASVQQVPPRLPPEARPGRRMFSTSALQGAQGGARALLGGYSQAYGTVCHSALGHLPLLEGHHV
MKNK2 (human), sequence (Q9HBH9 whole entry, looked up): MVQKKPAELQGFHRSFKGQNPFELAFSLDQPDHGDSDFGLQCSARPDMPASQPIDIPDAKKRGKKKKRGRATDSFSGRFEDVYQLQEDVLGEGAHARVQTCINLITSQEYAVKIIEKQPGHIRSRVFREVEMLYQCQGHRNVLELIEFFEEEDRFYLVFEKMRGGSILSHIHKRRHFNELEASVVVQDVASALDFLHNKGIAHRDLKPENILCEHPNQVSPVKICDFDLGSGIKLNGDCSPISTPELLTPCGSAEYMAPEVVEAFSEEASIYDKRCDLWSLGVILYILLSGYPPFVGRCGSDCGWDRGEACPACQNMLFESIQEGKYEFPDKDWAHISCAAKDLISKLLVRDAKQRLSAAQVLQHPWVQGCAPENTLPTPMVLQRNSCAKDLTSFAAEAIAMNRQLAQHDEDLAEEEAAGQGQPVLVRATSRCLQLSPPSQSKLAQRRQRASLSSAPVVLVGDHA

CNc1nc(-c2ccc3c(N)n[nH]c3c2)cc(N2C[C@@H](C(=O)NC3CCCCC3)CC[C@H]2C)n1
residual activity (RPS6KA5 KD1 KD2 (human); compound 0.01 µM): 102%
residual activity (RPS6KA5 KD1 KD2 (human); compound 0.1 µM): 100%
residual activity (RPS6KA5 KD1 KD2 (human); compound 1.0 µM): 95%
residual activity (RPS6KA5 KD1 KD2 (human); compound 10.0 µM): 66%
residual activity (PRKACA (human); compound 0.01 µM): 103%
residual activity (PRKACA (human); compound 0.1 µM): 111%
residual activity (PRKACA (human); compound 1.0 µM): 102%
residual activity (PRKACA (human); compound 10.0 µM): 84%
residual activity (MAPK3 (human); compound 0.01 µM): 93%
residual activity (MAPK3 (human); compound 0.1 µM): 106%
residual activity (MAPK3 (human); compound 1.0 µM): 103%
residual activity (MAPK3 (human); compound 10.0 µM): 108%
residual activity (PAK7 (human); compound 0.01 µM): 97%
residual activity (PAK7 (human); compound 0.1 µM): 101%
residual activity (PAK7 (human); compound 1.0 µM): 97%
residual activity (PAK7 (human); compound 10.0 µM): 99%
residual activity ([1]; compound 0.01 µM): 111%
residual activity ([1]; compound 0.1 µM): 106%
residual activity ([1]; compound 1.0 µM): 108%
residual activity ([1]; compound 10.0 µM): 81%
residual activity (INSRR (human); compound 0.01 µM): 111%
residual activity (INSRR (human); compound 0.1 µM): 111%
residual activity (INSRR (human); compound 1.0 µM): 117%
residual activity (MAP2K1 (human); compound 0.01 µM): 86%
residual activity (MAP2K1 (human); compound 0.1 µM): 101%
residual activity (MAP2K1 (human); compound 1.0 µM): 85%
residual activity (MAP2K1 (human); compound 10.0 µM): 74%
residual activity (MAPK1 (human); compound 0.01 µM): 117%
residual activity (MAPK1 (human); compound 0.1 µM): 111%
residual activity (MAPK1 (human); compound 1.0 µM): 107%
residual activity (MAPK1 (human); compound 10.0 µM): 109%
residual activity (FLT1 (human); compound 0.01 µM): 98%
residual activity (FLT1 (human); compound 0.1 µM): 108%
residual activity (FLT1 (human); compound 1.0 µM): 89%
residual activity (FLT1 (human); compound 10.0 µM): 64%
residual activity (TTK (human); compound 0.01 µM): 90%
residual activity (TTK (human); compound 0.1 µM): 98%
residual activity (TTK (human); compound 1.0 µM): 84%
residual activity (TTK (human); compound 10.0 µM): 61%
residual activity (EPHA4 (human); compound 1.0 µM): 86%
residual activity (EPHA4 (human); compound 10.0 µM): 98%
residual activity (MAPK15 (human); compound 0.01 µM): 106%
residual activity (MAPK15 (human); compound 0.1 µM): 117%
residual activity (MAPK15 (human); compound 1.0 µM): 99%
residual activity (MAPK15 (human); compound 10.0 µM): 83%
residual activity (MKNK2 (human); compound 0.01 µM): 91%
residual activity (MKNK2 (human); compound 1.0 µM): 80%
residual activity (MKNK2 (human); compound 10.0 µM): 94%
residual activity (NEK2 (human); compound 0.01 µM): 118%
residual activity (NEK2 (human); compound 0.1 µM): 118%
residual activity (NEK2 (human); compound 1.0 µM): 94%
residual activity (NEK2 (human); compound 10.0 µM): 91%
residual activity (EPHB4 (human); compound 1.0 µM): 119%
residual activity (EPHB4 (human); compound 10.0 µM): 117%
residual activity (SRC (human); compound 0.01 µM): 101%
residual activity (SRC (human); compound 0.1 µM): 105%
residual activity (SRC (human); compound 1.0 µM): 95%
residual activity (NEK6 (human); compound 0.01 µM): 98%
residual activity (NEK6 (human); compound 0.1 µM): 101%
residual activity (NEK6 (human); compound 1.0 µM): 84%
residual activity (NEK6 (human); compound 10.0 µM): 79%
residual activity (MAPK14 (human); compound 0.01 µM): 105%
residual activity (MAPK14 (human); compound 0.1 µM): 109%
residual activity (MAPK14 (human); compound 1.0 µM): 100%
residual activity (MAPK14 (human); compound 10.0 µM): 99%
residual activity (PLK1 (human); compound 0.01 µM): 95%
residual activity (PLK1 (human); compound 0.1 µM): 113%
residual activity (RPS6KA3 KD1 KD2 (human); compound 0.1 µM): 97%
residual activity (RPS6KA3 KD1 KD2 (human); compound 1.0 µM): 79%
residual activity (RPS6KA3 KD1 KD2 (human); compound 10.0 µM): 28%
residual activity (CDK2 CCNA2 (human); compound 0.01 µM): 104%
residual activity (CDK2 CCNA2 (human); compound 0.1 µM): 101%
residual activity (CDK2 CCNA2 (human); compound 1.0 µM): 103%
residual activity (CDK2 CCNA2 (human); compound 10.0 µM): 85%
residual activity (BTK (human); compound 0.01 µM): 126%
residual activity (BTK (human); compound 0.1 µM): 121%
residual activity (BTK (human); compound 1.0 µM): 97%
residual activity (BTK (human); compound 10.0 µM): 90%
residual activity (CSNK1D (human); compound 0.01 µM): 100%
residual activity (CSNK1D (human); compound 0.1 µM): 108%
residual activity (CSNK1D (human); compound 1.0 µM): 96%
residual activity (CSNK1D (human); compound 10.0 µM): 88%
residual activity (SYK (human); compound 0.01 µM): 109%
residual activity (SYK (human); compound 0.1 µM): 105%
residual activity (SYK (human); compound 1.0 µM): 104%
residual activity (SYK (human); compound 10.0 µM): 105%
residual activity (IKBKE (human); compound 0.01 µM): 114%
residual activity (IKBKE (human); compound 0.1 µM): 97%
residual activity (IKBKE (human); compound 1.0 µM): 91%
residual activity (IKBKE (human); compound 10.0 µM): 45%
residual activity (RPS6KA1 KD1 KD2 (human); compound 0.01 µM): 123%
residual activity (RPS6KA1 KD1 KD2 (human); compound 0.1 µM): 113%
residual activity (RPS6KA1 KD1 KD2 (human); compound 1.0 µM): 86%
residual activity (RPS6KA1 KD1 KD2 (human); compound 10.0 µM): 40%
residual activity (IKBKB (human); compound 0.01 µM): 105%
residual activity (IKBKB (human); compound 0.1 µM): 112%
residual activity (IKBKB (human); compound 1.0 µM): 118%
residual activity (IKBKB (human); compound 10.0 µM): 103%
residual activity ([2]; compound 0.01 µM): 125%
residual activity ([2]; compound 0.1 µM): 118%
residual activity ([2]; compound 1.0 µM): 107%
residual activity ([2]; compound 10.0 µM): 56%
residual activity (RIPK2 (human); compound 0.01 µM): 110%
residual activity (RIPK2 (human); compound 0.1 µM): 114%
residual activity (RIPK2 (human); compound 1.0 µM): 116%
residual activity (RIPK2 (human); compound 10.0 µM): 100%
residual activity (EPHB1 (human); compound 1.0 µM): 111%
residual activity (EPHB1 (human); compound 10.0 µM): 118%
residual activity (MAPKAPK3 (human); compound 0.01 µM): 112%
residual activity (MAPKAPK3 (human); compound 0.1 µM): 112%
residual activity (MAPKAPK3 (human); compound 1.0 µM): 91%
residual activity (MAPKAPK3 (human); compound 10.0 µM): 68%
residual activity (PIM2 (human); compound 0.01 µM): 97%
residual activity (PIM2 (human); compound 1.0 µM): 97%
residual activity (PIM2 (human); compound 10.0 µM): 110%
residual activity (PRKAA1 or PRKAA2 (rat); compound 0.01 µM): 107%
residual activity (PRKAA1 or PRKAA2 (rat); compound 0.1 µM): 111%
residual activity (PRKAA1 or PRKAA2 (rat); compound 1.0 µM): 91%
residual activity (PRKAA1 or PRKAA2 (rat); compound 10.0 µM): 44%
residual activity (CHEK2 (human); compound 0.1 µM): 121%
residual activity (CHEK2 (human); compound 1.0 µM): 96%
residual activity (CHEK2 (human); compound 10.0 µM): 51%
residual activity (CSK (human); compound 0.01 µM): 103%
residual activity (CSK (human); compound 0.1 µM): 104%
residual activity (CSK (human); compound 1.0 µM): 100%
residual activity (CSK (human); compound 10.0 µM): 93%
